Experimental findings from patent US20230150921A1, “PHENOLIC ACID LIPID BASED CATIONIC LIPIDS” (Translate Bio, Inc., priority 2020, published 2023) are described below.

A short description of the data set: Characterisation of lipid nanoparticle formulations (size, PDI, mRNA encapsulation). Particulars: lipid nanoparticle with FFL mRNA; Process A; Cationic Lipid:DMG-PEG2000:Cholesterol:DOPE 40:5:25:30 mol%; N/P 4. It is filed as physicochemical. Here is the method:
One exemplary process for lipid nanoparticle formulation is Process A of WO 2018/089801 (see, e.g., Example 1 and FIG. 1 of WO 2018/089801). Process A (“A”) relates to a conventional method of encapsulating mRNA by mixing mRNA with a mixture of lipids, without first pre-forming the lipids into lipid nanoparticles. In an exemplary process, an ethanol lipid solution and an aqueous buffered solution of mRNA were prepared separately. A solution of mixture of lipids (cationic lipid, helper lipids, zwitterionic lipids, PEG lipids etc.) was prepared by dissolving lipids in ethanol. The mRNA solution was prepared by dissolving the mRNA in citrate buffer. The mixtures were then both heated to 65° C. prior to mixing. Then, these two solutions were mixed using a pump system. In some instances, the two solutions were mixed using a gear pump system. In certain embodiments, the two solutions were mixing using a ‘T’ junction (or “Y” junction). The mixture was then purified by diafiltration with a TFF process. The resultant formulation concentrated and stored at 2-8° C. until further use. A second exemplary process for lipid nanoparticle formulation is Process B of WO 2018/089801 (see, e.g., Example 2 and the FIGURE of WO 2018/089801). Process B (“B”) refers to a process of encapsulating messenger RNA (mRNA) by mixing pre-formed lipid nanoparticles with mRNA. A range of different conditions, such as varying temperatures (i.e., heating or not heating the mixture), buffers, and concentrations, may be employed in Process B. In an exemplary process, lipids dissolved in ethanol and citrate buffer were mixed using a pump system. […] The resultant formulation mixture was empty lipid nanoparticles in citrate buffer containing alcohol. The formulation was then subjected to a TFF purification process wherein buffer exchange occurred. The resulting suspension of pre-formed empty lipid nanoparticles was then mixed with mRNA using a pump system. […] The lipid nanoparticle formulations of Table 5 were prepared by either Process A or B. Each formulation comprised mRNA encoding firefly luciferase protein (FFL mRNA) and lipids (Cationic Lipid: DMG-PEG2000; Cholesterol: DOPE) in the mol % ratios set forth in Table 5.
Turning to `CCCCCCCCCCC(O)CN(CCCCC(=O)Oc1c(OC)cc(/C=C/C(=O)OCCCN(C)C)cc1OC)CC(O)CCCCCCCCCC` (stereo not drawn) [Compound 10], the Encapsulation % was determined as 94%, the PDI amounted to 0.213 and the “Size (nm)” value was 43.3 nm.

As to `CCCCCCCCCCCCC(O)CN(CCCC(=O)Oc1c(OC)cc(C(=O)OCCCN(C)C)cc1OC)CC(O)CCCCCCCCCCCC` (stereo not drawn) [Compound 5], the Encapsulation % is on record as 97%, the PDI is 0.249 and the “Size (nm)” value is listed as 48.4 nm.

Regarding `CCCCCCC/C=C\C/C=C\CCCCC(O)CN(CCCC(=O)Oc1c(OC)cc(C(=O)OCCCN(C)C)cc1OC)CC(O)CCCC/C=C\C/C=C\CCCCCCC` (stereo not drawn) [Compound 7], the Encapsulation % is listed as 95%, the PDI worked out at 0.429 and the “Size (nm)” value is on record as 64.2 nm.

As for `CCCCCCCCCCCCC(O)CN(CCCCC(=O)Oc1c(OC)cc(/C=C/C(=O)OCCCN(C)C)cc1OC)CC(O)CCCCCCCCCCCC` (stereo not drawn) [Compound 11], the Encapsulation % is 98%, the PDI amounted to 0.214 and the “Size (nm)” value is on record as 44.0 nm.

Turning to `CCCCCCCCCCC(O)CN(CCCC(=O)Oc1c(OC)cc(C(=O)OCCCN(C)C)cc1OC)CC(O)CCCCCCCCCC` (stereo not drawn) [Compound 2], the Encapsulation % is 94%, the PDI amounted to 0.251 and the “Size (nm)” value was found to be 48.9 nm.

`CCCCCCCCCCCCC(O)CN(CCCCC(=O)Oc1c(OC)cc(C(=O)OCCCN(C)C)cc1OC)CC(O)CCCCCCCCCCCC` (stereo not drawn) [Compound 6]: the Encapsulation % is reported as 73%, the PDI worked out at 0.208 and the “Size (nm)” value came out at 47.0 nm.

Turning to `CCCCCCCCCCC(O)CN(CCCCC(=O)Oc1c(OC)cc(C(=O)OCCCN(C)C)cc1OC)CC(O)CCCCCCCCCC` (stereo not drawn) [Compound 4], the Encapsulation % is 91%, the PDI is 0.198 and the “Size (nm)” value stood at 41.4 nm.

As to `CCCCCCCCCCC(O)CN(CCCC(=O)Oc1ccc(C(=O)OCCCN(C)C)cc1CC)CC(O)CCCCCCCCCC` (stereo not drawn) [Compound 12], the Encapsulation % was found to be 96%, the PDI is reported as 0.173 and the “Size (nm)” value was 65.1 nm.

Consider `CCCCCCCCC(O)CN(CCCCC(=O)Oc1c(OC)cc(C(=O)OCCCN(C)C)cc1OC)CC(O)CCCCCCCC` (stereo not drawn) [Compound 3], for which the Encapsulation % was found to be 89%, the PDI was 0.207 and the “Size (nm)” value was 40.3 nm.

For the compound `CCCCCCCCC(O)CN(CCCC(=O)Oc1c(OC)cc(C(=O)OCCCN(C)C)cc1OC)CC(O)CCCCCCCC` (stereo not drawn) [Compound 1], the Encapsulation % was determined as 94%, the PDI stood at 0.235 and the “Size (nm)” value was found to be 47.6 nm.

`CCCCCCCCC(O)CN(CCCCC(=O)Oc1c(OC)cc(C(=O)OCCCN(C)C)cc1OC)CC(O)CCCCCCCC` (stereo not drawn) [Compound 9]: the Encapsulation % amounted to 79%, the PDI was found to be 0.213 and the “Size (nm)” value is reported as 42.3 nm.

Turning to `CCCCCCCCCCC(O)CN(CCCC(=O)Oc1c(OC)cc(/C=C/C(=O)OCCCN(C)C)cc1OC)CC(O)CCCCCCCCCC` (stereo not drawn) [Compound 8], the Encapsulation % worked out at 95%, the PDI is 0.193 and the “Size (nm)” value was found to be 43.3 nm.
